According to patent publication US20200261543A1, “COMBINATION THERAPY FOR TREATMENT OF BONE DISORDERS” (University of Copenhagen, priority 2017, published 2020):

How the values were obtained:
[1] = test system: serum C-terminal cross-linking telopeptide of type I collagen (CTX); test: Serum CTX (bone resorption) after s.c. GLP-1, Example 5; type: in vivo, human; details: GLP-1 1.5 nmol/kg s.c.
Protocol: Eight healthy young people were enrolled (five male, three female). […] Participants arrived in the morning after an overnight fast. Blood samples were collected before (−15 and 0 min) and after injection (15, 30, 45, 60, 90 and 120 min). After last participant's last visit, bone resorption was determined by measurements of serum C-terminal cross-linking telopeptide of type I collagen (CTX; IDS Immunodiagnostic Systems GmbH, Frankfurt am Main, Germany).

[2] = in vivo; cited from earlier work
[3] = test system: serum C-terminal cross-linking telopeptide of type I collagen (CTX); test: Serum CTX (bone resorption) after s.c. injection in healthy young men, Example 1/3 study; type: in vivo, human; details: for reduction in bone resorption (CTX): 200 μg GIP and 800 μg GLP-2, Example 1 as summarised in Example 2; for time of maximum effect on bone resorption (CTX): GIP 200 μg or GLP-2 800 μg s.c.
Protocol: (§1) Eight healthy young men were enrolled. The study included three study days in randomised order (with a minimum of 1 week washout between study days) where human GIP (200 μg), human GLP-2 (800 μg), or placebo was injected subcutaneously. Participants arrived in the morning (fasted overnight) and received the injection around 8.30 a.m. Blood samples were collected before (−25 and −10 min) and every 30 minutes after injection (30, 60, 90, 120, 180 and 240 min). After last participant's last visit, bone resorption was determined by measurements of serum C-terminal cross-linking telopeptide of type I collagen (CTX; IDS Immunodiagnostic Systems GmbH, Frankfurt am Main, Germany)
(§2) Eight healthy young men were enrolled, and the study was conducted as outlined in Example 1. After last participant's last visit, bone resorption was determined by measurements of CTX (IDS Immunodiagnostic Systems GmbH, Frankfurt am Main, Germany) and bone formation was determined by measurements of serum N-terminal propeptide of type 1 collagen (P1NP; IDS Immunodiagnostic Systems GmbH, Frankfurt am Main, Germany). In addition, serum concentration of parathyroid hormone (PTH; IDS Immunodiagnostic Systems GmbH, Frankfurt am Main, Germany) was measured.

[4] = test system: serum N-terminal propeptide of type 1 collagen (P1NP); test: Serum P1NP (bone formation) after s.c. injection, Example 3; type: in vivo, human; details: for time of maximum effect on bone formation (P1NP): GIP 200 μg or GLP-2 800 μg s.c.
Protocol: as §1, §2

[5] = test system: parathyroid hormone (PTH); test: Serum PTH after s.c. injection, Example 3; type: in vivo, human; details: for time of maximum effect on PTH: GIP 200 μg or GLP-2 800 μg s.c.; for PTH level at maximum effect: 15 min after injection
Protocol: as §1, with “Blood samples were collected before (−25 and −10 min) and every 30 minutes after injection (30, 60, 90, 120, 180 and 240 min).” left out
as §2

[6] = test system: CTX; test: CTX (bone resorption) after s.c. injection alone or in combination, Example 2/4 study; type: in vivo, human; details: Example 4; for time of maximum effect on bone resorption (CTX): GIP 100 μg, GLP-2 400 μg or both s.c.
Protocol: (§3) Ten healthy young men are enrolled and the study includes four study days in randomised order (with a minimum of 1 week washout between study days) where human GIP (100 μg), human GLP-2 (400 μg), GIP+GLP-2 (100 μg+400 μg), or placebo are injected subcutaneously. The participants arrive in the morning (fasted overnight) and receive the injection around 8.30 a.m. Blood samples are collected before (−25 and −10) and every 30 minutes after injection (30, 60, 90, 120, 180 and 240 min) injection. After last participant's last visit, samples are analysed for concentrations of bone resorption markers (CTX).
as §2, with “Ten” for “Eight”, “are enrolled” for “were enrolled,”, “2.” for “1.”, “measured. The doses of GIP and GLP-2 were selected as discussed in example 2.” for “measured.”

[7] = test system: serum N-terminal propeptide of type 1 collagen (P1NP); test: Serum P1NP (bone formation) after s.c. injection alone or in combination, Example 4; type: in vivo, human; details: for time of maximum effect on bone formation (P1NP): GIP 100 μg or GLP-2 400 μg s.c.
Protocol: as §3
as §2, with “Ten” for “Eight”, “are enrolled” for “were enrolled,”, “2.” for “1.”, “measured. The doses of GIP and GLP-2 were selected as discussed in example 2.” for “measured.”

[8] = test system: parathyroid hormone (PTH); test: Serum PTH after s.c. injection alone or in combination, Example 4; type: in vivo, human; details: for time of maximum effect on PTH: GIP 100 μg, GLP-2 400 μg or both s.c.
Protocol: as §3, with “Blood samples are collected before (−25 and −10) and every 30 minutes after injection (30, 60, 90, 120, 180 and 240 min) injection.” left out
as §2, with “Ten” for “Eight”, “are enrolled” for “were enrolled,”, “2.” for “1.”, “measured. The doses of GIP and GLP-2 were selected as discussed in example 2.” for “measured.”

[9] = test system: serum C-terminal cross-linking telopeptide of type I collagen (CTX); test: Nocturnal CTX (bone resorption) in postmenopausal women, Example 6; type: in vivo, human
Protocol: Ten healthy postmenopausal women are enrolled and the study includes four study days in randomised order (with a minimum of 1 week washout between study days) where human GIP (hGIP 100 μg), human GLP-2 ([…]), hGIP+hGLP-2 (100 μg+400 μg), or placebo, are injected subcutaneously. The participants arrive in the evening around 9 p.m. (fasted from ˜7 p.m.) and receive the injections at 10 p.m. Blood samples are collected before (−10 and −5 min) and after injection (7, 15, 30, 45, 60, 90, 120, 180 and 240 min). Bone resorption was determined by measurements of serum C-terminal cross-linking telopeptide of type I collagen (CTX; IDS Immunodiagnostic Systems GmbH, Frankfurt am Main, Germany). The doses of GIP and GLP-2 were selected as discussed in example 2.

## GLP-1: human glucagon-like peptide-1; which form (SEQ ID NO: 7, 8 or 9) was injected is not stated
[1]
  time of maximum effect on bone resorption (CTX): 120 min
[1]; 120 min after injection, healthy young people
  bone resorption (CTX) at maximum effect: 74.4±3.7 % of base line
[2]
  fasting plasma levels: 0 to 15 pmol/L

## HADGSFSDEMNTILDNLAARDFINWLIQTKITD [GLP-2]
[3]
  reduction in bone resorption (CTX): ~50%
[3]; Example 1
  time of maximum effect on bone resorption (CTX): 180 min
[3]; Example 3
  time of maximum effect on bone resorption (CTX): 180 min
[3]; GLP-2 800 μg s.c., 180 min after administration, Example 3 (completed study)
  bone resorption (CTX) at maximum effect: 60.5±14.1 % of base line
[3]; GLP-2 800 μg s.c., 180 min after administration, healthy young men, Example 1
  bone resorption (CTX) at maximum effect: 63.4±3.4 % of base line
[4]
  time of maximum effect on bone formation (P1NP): 45 min
[4]; GLP-2 800 μg s.c., 45 min after injection
  bone formation (P1NP) at maximum effect (reduction): 88.1±8.5 % of base line
[5]
  time of maximum effect on PTH: 15 min
[5]; GLP-2 800 μg s.c.
  PTH level at maximum effect: 71.9±13.9 % of basal levels
[6]
  time of maximum effect on bone resorption (CTX): 210 min
[6]; GLP-2 400 μg s.c. alone, 210 min after injection
  bone resorption (CTX) at maximum effect: 58.2±16.0 % of basal
[7]
  time of maximum effect on bone formation (P1NP): 60 min
[7]; GLP-2 400 μg s.c., 60 min after injection
  bone formation (P1NP) at maximum effect (reduction): 88.2±9.4 % of base line
[8]
  time of maximum effect on PTH: 45 min
[8]; GLP-2 400 μg s.c., 45 min after injection
  PTH level at maximum effect: 65.7±16.8 % of basal levels
[9]; GLP-2 400 μg s.c. at 10 p.m.
  nocturnal bone resorption (CTX) compared to placebo: reduced bone resorption during the entire study period

## YAEGTFISDYSIAMDKIHQQDFVNWLLAQKGKKNDWKHNITQ [GIP]
[3]
  reduction in bone resorption (CTX): ~50%
[3]; Example 1
  time of maximum effect on bone resorption (CTX): 90 min
[3]; Example 3
  time of maximum effect on bone resorption (CTX): 90 min
[3]; GIP 200 μg s.c., 90 min after injection, Example 3 (completed study)
  bone resorption (CTX) at maximum effect: 55.3±17.9 % of base line
[3]; GIP 200 μg s.c., 90 min after injection, healthy young men, Example 1
  bone resorption (CTX) at maximum effect: 56.2±11.2 % of base line
[4]
  time of maximum effect on bone formation (P1NP): 30 min
[4]; GIP 200 μg s.c., 30 min after injection
  bone formation (P1NP) at maximum effect (increase): 115.1±6.2 % of base line
[5]
  time of maximum effect on PTH: 15 min
[5]; GIP 200 μg s.c.
  PTH level at maximum effect: 71.2±11.4 % of basal levels
[6]; GIP 100 μg s.c. alone, 90 min after administration
  bone resorption (CTX) at maximum effect: 57.6±17.9 % of basal
[6]
  time of maximum effect on bone resorption (CTX): 90 min
[7]
  time of maximum effect on bone formation (P1NP): 30 min
[7]; GIP 100 μg s.c., 30 min after injection
  bone formation (P1NP) at maximum effect (increase): 111.1±9.0 % of base line
[8]; GIP 100 μg s.c., 15 min after injection
  PTH level at maximum effect: 73.0±19.2 % of basal levels
[8]
  time of maximum effect on PTH: 15 min
[9]; GIP 100 μg s.c. at 10 p.m.
  nocturnal bone resorption (CTX) compared to placebo: reduced bone resorption was seen from 30 min to 120 min
